Experimental data taken from patent publication US20230174608A1, “Polypeptide Derivative Having Dual Receptor Agonistic Action and Use Thereof” (TIANJIN INSTITUTE OF PHARMACEUTICAL RESEARCH CO., LTD., priority 2020, published 2023).
Marks after values point to notes of the source that are not given here. Where a SMILES comes first, the peptide text is derived from it.

What was measured:
GLP-1R = target: T1, GLP-1R (Homo sapiens, UniProt P43220); test: GLP-1 receptor-mediated cAMP production in vitro; assay type: cell-based; details: HEK293 cell line stably expressing GLP-1R
T1 construct: expressed in transfected cells
Summary of the method: (§1)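 HEK293 cells stably expressing human GLP-1R or GCGR are stimulated with compound for 30 min in the dark in serum-free medium with 0.5 mM IBMX, with test dilutions spanning 1 μM down to 10^−3 nM. cAMP is detected after a 60 min room-temperature reaction as the 665/615 nm ratio.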

GCGR = target: T2, GCGR (Homo sapiens, UniProt P47871); test: GC receptor-mediated cAMP production in vitro; assay type: cell-based; details: HEK293 cell line stably expressing GCGR
T2 construct: expressed in transfected cells
Summary of the method: as §1

[1] = test system: glucose loaded normal mice; test: Glucose loading test on normal mice after single administration; assay type: in vivo, Kunming mice; details: for Blood glucose reduction rate (%): after glucose loading, versus model control group; for Blood glucose level after glucose loading: glucose 2.5 g/kg intragastric 60 min after administration, measured 30 min after loading; for Blood glucose level after glucose loading / Fasting blood glucose level: n=5; for Fasting blood glucose level: normal mice fasted 6 h, 30 nmol/kg group
Procedure: The hypoglycemic action of each compound of Example 1 was assessed by a glucose loading test on normal mice after single administration.
Method: Kunming mice (male, with a weight of 20-22 g) were acclimated in a barrier environment animal room for 3 days, divided into a blank control group, a model control group, a positive control group, and test compound groups, 5 mice in each group, and fasted for 6 h. Saline was administered to each mouse in the blank control group and the model control group, the compounds and a positive control drug were respectively administered to each mouse in the test compound groups and the positive control group at a dose of 30 nmol/kg, and the positive control drug was semaglutide. 60 min after administration, glucose was intragastrically administered to each mouse in the model control group, the positive control group, and the test compound groups at a dose of 2.5 g/kg (0.01 mL·g^−1 weight), distilled water was administered to each mouse in the blank control group, and blood glucose levels were determined 30 min after glucose loading.

[2] = test system: diet-induced obesity (DIO) mice; test: DIO model mice, weight after 2 weeks of administration; assay type: in vivo, C57BL/6N mice; details: 30 nmol/kg s.c. once a day, 14 days
Excerpt: Method: C57BL/6N mice were fed with H10060 high-fat diets to obtain diet-induced obesity (DIO) models, and mice in a control group (n=5) were fed with standard diets. One day before the first administration, the mice in the model group were randomly divided into 6 groups according to their weights (within a range of 40.5-50.5 g), i.e., a model control group, a positive control group, and test compound groups (dgc003, dgc004, dgc010, and dgc017), respectively, 5 mice in each group, which were administered once a day by subcutaneous injection. Saline was subcutaneously injected into each mouse in the blank control group and the model control group every day. The administration was performed for 14 days. The positive control drug and the test compounds were administered at a dose of 30 nmol/kg, and the administration volume for each group was 0.005 mL/g weight. The mice were weighed before each administration, and 72-h food intake was weighed every three days.

[3] = test system: diet-induced obesity (DIO) mice; test: Obese (DIO) model mice, 23 days of successive administration; assay type: in vivo, C57BL/6J Gpt mice; details: for Fasting blood glucose (mmol/L) before the last administration: fasted 16 h; for Fasting blood glucose (mmol/L) before the last administration / TC (total cholesterol) / TG (triglycerides): n=5; for Weight decreasing rate: 30 nmol/kg s.c. every day, without fasting before the last administration compared to day 1; for Examination of liver pathological section: HE stain, 2 animals; for TC (total cholesterol) / TG (triglycerides): after 23 days of administration
Excerpt: C57BL/6J Gpt mice (purchased from GemPharmatech (Jiangsu) Co., Ltd.) (6-8-week-old) were fed with H10060 high-fat diet (purchased from Beijing HFK Bioscience Co., Ltd.) to obtain diet-induced obesity (DIO) models, mice in a blank control group (n=5) were fed with standard diets, and all the mice were fed for 11 weeks after being purchased. One day before the first administration, the mice in the model group were randomly divided into 5 groups according to their weights (within a range of 39.5-49.5 g), i.e., a model control group, a positive control group, and test compound groups (dgc005, dgc016, and dgc020), respectively, 5 mice in each group, which were administered every day by subcutaneous injection. Saline was subcutaneously injected in the blank control group and the model control group every day. The administration was performed for 23 days. The positive control drug and the test compounds were administered at a dose of 30 nmol/kg, and the administration volume for each group was 0.005 mL/g weight. The mice were weighed before each administration, and 72-h food intake was weighed every three days. The mice fasted for 16 h before the last administration, fasting blood glucose levels were determined, blood was sampled from the orbital venous plexus to determine triglycerides and total cholesterol, and the liver was taken out for pathological section observation.
The liver of each C576L/6 mouse in the groups was fixed with 12% formaldehyde and prepared into a specimen, and the tissue block was repaired, dehydrated with graded alcohol, embedded in paraffin, stained with HE, and examined under a light microscope.

[4] = test system: diet-induced obesity (DIO) mice; test: DIO mice, weight and blood glucose after multiple administrations at different doses; assay type: in vivo, C57BL/6N mice; details: for Fasting blood glucose (mmol/L) before the last administration / Blood glucose level (mmol/L) 0.5 h after glucose loading / Glycemic load reduction rate: Day 22; for Fasting blood glucose (mmol/L) before the last administration: fasted 16 h; for Blood glucose level (mmol/L) 0.5 h after glucose loading: glucose 1 g/kg intragastric 30 min after administration; for Glycemic load reduction rate: versus model control group; for Reduction rate of weight without fasting on day 21 compared to day 0: n=5
Excerpt: 40 C57BL/6N mice were purchased from Beijing Vital River Laboratory Animal Technology Co., Ltd. Mice in a model group (n=35) were fed with H10060 high-fat diets to obtain diet-induced obesity (DIO) models, mice in a blank control group (n=5) were fed with standard diets, and all the mice were fed for 36 weeks. On the day of the first administration, the mice in the model group were randomly divided into 7 groups according to their weights (within a range of 45-60 g), i.e., a model control group, positive control groups (semaglutide at doses of 10 nmol/kg and 30 nmol/kg, respectively), and test compound groups (dgc005 and dgc016 at doses of 10 nmol/kg and 30 nmol/kg, respectively), 5 mice in each group. The positive control drug and the test compounds were respectively subcutaneously injected into each mouse in the positive control groups and the test compound groups every day, saline was subcutaneously injected into each mouse in the blank control group and the model control group, and the administration was performed for 22 days (the administration volume for each group was 0.005 mL/g weight). The mice were weighed before each administration, and 72-h food intake was weighed every three days. The mice fasted for 16 h before the last administration, and 30 min after administration, a glucose solution (1 g/kg, the administration volume was 0.01 mL/g weight) was intragastrically administered to each mouse for glucose tolerance test. Blood glucose levels were determined 0.5 h after glucose loading.

[5] = day 4 of administration, 30 nmol/kg s.c. daily
[6] = day 7 of administration, 30 nmol/kg s.c. daily
[7] = day 10 of administration, 30 nmol/kg s.c. daily
[8] = day 13 of administration, 30 nmol/kg s.c. daily

T2 sequence (P47871 26-477, species assumed): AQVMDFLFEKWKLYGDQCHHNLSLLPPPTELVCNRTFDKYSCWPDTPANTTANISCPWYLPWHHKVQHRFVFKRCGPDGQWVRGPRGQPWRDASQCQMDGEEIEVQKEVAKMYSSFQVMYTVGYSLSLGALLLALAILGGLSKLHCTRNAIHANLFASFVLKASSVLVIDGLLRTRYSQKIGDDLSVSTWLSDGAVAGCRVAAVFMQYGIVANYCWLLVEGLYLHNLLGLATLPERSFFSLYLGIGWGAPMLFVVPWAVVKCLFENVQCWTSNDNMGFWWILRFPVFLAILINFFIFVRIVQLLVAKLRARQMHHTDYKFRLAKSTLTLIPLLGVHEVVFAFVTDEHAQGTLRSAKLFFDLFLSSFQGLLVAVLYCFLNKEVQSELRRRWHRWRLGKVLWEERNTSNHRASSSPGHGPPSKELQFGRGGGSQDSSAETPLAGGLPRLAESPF
T1 sequence (P43220 24-463, species assumed): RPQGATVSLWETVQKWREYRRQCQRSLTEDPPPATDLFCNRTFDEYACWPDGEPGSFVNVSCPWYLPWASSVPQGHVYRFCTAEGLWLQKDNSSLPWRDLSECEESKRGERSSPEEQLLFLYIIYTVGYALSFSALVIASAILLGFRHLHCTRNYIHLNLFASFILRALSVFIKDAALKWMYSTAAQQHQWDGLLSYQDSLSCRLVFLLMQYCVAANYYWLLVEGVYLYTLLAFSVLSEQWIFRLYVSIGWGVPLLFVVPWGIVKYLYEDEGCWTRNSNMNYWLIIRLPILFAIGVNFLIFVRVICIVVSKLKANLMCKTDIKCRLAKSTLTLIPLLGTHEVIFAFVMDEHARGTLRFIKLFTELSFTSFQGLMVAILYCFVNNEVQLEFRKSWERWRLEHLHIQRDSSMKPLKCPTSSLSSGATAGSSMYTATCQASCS

Compound	EC50 (GLP-1R)	EC50 (GCGR)	Blood glucose reduction rate (%) ([1]; 30 nmol/kg single dose)	Blood glucose level after glucose loading ([1]; 30 nmol/kg single dose)	Fasting blood glucose level [1]	Weight decreasing rate by the last administration [2]	Fasting blood glucose (mmol/L) before the last administration ([3]; 30 nmol/kg s.c. daily, 23 days)	Weight decreasing rate [3]	Examination of liver pathological section ([3]; 23 days, 30 nmol/kg s.c. daily)	TC (total cholesterol) ([3]; 30 nmol/kg s.c. daily)	TG (triglycerides) ([3]; 30 nmol/kg s.c. daily)	72-h food intake [3, 5]	72-h food intake [3, 6]	72-h food intake [3, 7]	72-h food intake [3, 8]	Fasting blood glucose (mmol/L) before the last administration ([4]; 10 nmol/kg s.c. daily)	Blood glucose level (mmol/L) 0.5 h after glucose loading ([4]; 10 nmol/kg s.c. daily)	Glycemic load reduction rate ([4]; 10 nmol/kg s.c. daily)	Reduction rate of weight without fasting on day 21 compared to day 0 ([4]; 10 nmol/kg s.c. every day)	Fasting blood glucose (mmol/L) before the last administration ([4]; 30 nmol/kg s.c. daily)	also measured
CCCCCCCCCCCCCCCC(=O)N[C@@H](CCC(=O)NCCCC[C@H](NC(=O)[C@H](C)NC(=O)[C@H](C)NC(=O)[C@H](CCCNC(=N)N)NC(=O)[C@H](CCC(=O)O)NC(=O)[C@H](CC(=O)O)NC(=O)[C@H](CC(C)C)NC(=O)[C@H](Cc1ccc(O)cc1)NC(=O)[C@H](CCCCN)NC(=O)[C@H](CO)NC(=O)[C@H](Cc1ccc(O)cc1)NC(=O)[C@H](CC(=O)O)NC(=O)[C@H](CO)NC(=O)[C@@H](NC(=O)[C@H](Cc1ccccc1)NC(=O)[C@@H](NC(=O)CNC(=O)[C@H](CCC(N)=O)NC(=O)C(C)(C)NC(=O)[C@@H](N)Cc1c[nH]cn1)[C@@H](C)O)[C@@H](C)O)C(=O)N[C@@H](CCC(=O)O)C(=O)N[C@@H](Cc1ccccc1)C(=O)N[C@H](C(=O)N[C@@H](C)C(=O)N[C@@H](Cc1c[nH]c2ccccc12)C(=O)N[C@@H](CC(C)C)C(=O)N[C@@H](CCC(=O)O)C(=O)N[C@@H](C)C(=O)NCC(=O)NCC(N)=O)[C@@H](C)CC)C(=O)O [dgc003] (HELM PEPTIDE1{H.[Aib].Q.G.T.F.T.S.D.Y.S.K.Y.L.D.E.R.A.A.K.E.F.I.A.W.L.E.A.G.G.[am]}|PEPTIDE2{[CCCCCCCCCCCCCCCC(=O)[*:2]].[gGlu]}$PEPTIDE1,PEPTIDE2,20:R3-2:R2$$$V2.0; N-terminus assumed)	0.291 nM	1.04 nM	48.12%	8.82 ± 1.63 mmol/L	4.20 ± 0.97 mmol/L	16.7%	–	–	–	–	–	–	–	–	–	–	–	–	–	–	–
CCCCCCCCCCCCCCCC(=O)N[C@@H](CCC(=O)N[C@@H](CCC(=O)NCCCC[C@H](NC(=O)[C@H](C)NC(=O)[C@H](C)NC(=O)[C@H](CCCNC(=N)N)NC(=O)[C@H](CCC(=O)O)NC(=O)[C@H](CCC(=O)O)NC(=O)[C@H](CC(C)C)NC(=O)[C@H](Cc1ccc(O)cc1)NC(=O)[C@H](CCCCN)NC(=O)[C@H](CO)NC(=O)[C@H](Cc1ccc(O)cc1)NC(=O)[C@H](CC(=O)O)NC(=O)[C@H](CO)NC(=O)[C@@H](NC(=O)[C@H](Cc1ccccc1)NC(=O)[C@@H](NC(=O)CNC(=O)[C@H](CCC(N)=O)NC(=O)C(C)(C)NC(=O)[C@@H](N)Cc1c[nH]cn1)[C@@H](C)O)[C@@H](C)O)C(=O)N[C@@H](CCC(=O)O)C(=O)N[C@@H](Cc1ccccc1)C(=O)N[C@H](C(=O)N[C@@H](C)C(=O)N[C@@H](Cc1c[nH]c2ccccc12)C(=O)N[C@@H](CC(C)C)C(=O)N[C@@H](CCC(=O)O)C(=O)NCC(=O)NCC(N)=O)[C@@H](C)CC)C(=O)O)C(=O)O [dgc016] (HELM PEPTIDE1{H.[Aib].Q.G.T.F.T.S.D.Y.S.K.Y.L.E.E.R.A.A.K.E.F.I.A.W.L.E.G.G.[am]}|PEPTIDE2{[CCCCCCCCCCCCCCCC(=O)[*:2]].[gGlu].[gGlu]}$PEPTIDE1,PEPTIDE2,20:R3-3:R2$$$V2.0; N-terminus assumed)	1.23 nM	0.342 nM	59.88%	6.82 ± 1.78**^ mmol/L	3.66 ± 0.77 mmol/L	–	4.18 ± 0.40 mmol/L	29.3%	no obvious pathological changes are seen in portal areas and interstitium	3.32 ± 0.73 ^ mmol/L	0.75 ± 0.10**^ΔΔ mmol/L	3.30 g/mouse	4.80 g/mouse	6.10 g/mouse	5.70 g/mouse	4.68 ± 2.12 mmol/L	7.12 ± 0.61**^Δ mmol/L	32.32	17.56%	5.02 ± 2.34 mmol/L	Inhibition of the rise of blood glucose after glucose loading (in words) ([1]; 30 nmol/kg single dose, normal mice): equivalent to that of the positive control drug; Effect on triglycerides (in words) ([3]; 23 days, 30 nmol/kg s.c. daily): has a triglyceride reduction action; Blood glucose level (mmol/L) 0.5 h after glucose loading ([4]; 30 nmol/kg s.c. daily): 7.48 ± 0.78 mmol/L; Glycemic load reduction rate ([4]; 30 nmol/kg s.c. daily): 28.90; Reduction rate of weight without fasting on day 21 compared to day 0 ([4]; 30 nmol/kg s.c. every day): 19.92%
semaglutide [Positive control group, reference compound]	–	–	67.18%	5.58 ± 1.55**^ mmol/L	3.78 ± 1.28 mmol/L	12.9%	4.48 ± 0.84 mmol/L	20.9%	mild to moderate lesions	3.97 ± 0.52^Δ mmol/L	0.90 ± 0.13**^ΔΔ mmol/L	3.50 g/mouse	5.80 g/mouse	5.40 g/mouse	5.50 g/mouse	5.54 ± 1.11 mmol/L	7.06 ± 1.15 mmol/L	32.89	15.28%	5.56 ± 0.91 mmol/L	Blood glucose level (mmol/L) 0.5 h after glucose loading ([4]; 30 nmol/kg s.c. daily): 8.20 ± 0.87 mmol/L; Glycemic load reduction rate ([4]; 30 nmol/kg s.c. daily): 22.05; Reduction rate of weight without fasting on day 21 compared to day 0 ([4]; 30 nmol/kg s.c. every day): 18.83%
